What all share (format): in vivo
What all share (settings): foliar, compared to untreated control leaf disks, read-out: disease control

Test [1] concerns Blumeria graminis f. sp. tritici (Erysiphe graminis f. sp. tritici). In words: Blumeria graminis f. sp. tritici / wheat / leaf disc preventative (powdery mildew on wheat). Put shortly:
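Preventative leaf-disc test: compound (200 ppm) was sprayed onto cv. Kanzler wheat segments, which were dusted with conidia from infected plants 1 day after application. After incubation at 20° C and 60% rh, disease control relative to untreated segments was rated 6-8 days after application.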

The test system of another test is Pyrenophora teres. In words: Pyrenophora teres / barley / leaf disc preventative (net blotch). The text has this:
Pyrenophora teres/Barley/Leaf Disc Preventative (Net Blotch) Barley leaf segments cv. Hasso were placed on agar in a multiwell plate (24-well format) and sprayed with the formulated test compound diluted in water. The leaf segments were inoculated with a spore suspension of the fungus 2 days after application.

The test system of test [2] is Puccinia recondita f. sp. tritici. In words: Puccinia recondita f. sp. tritici / wheat / leaf disc preventative (brown rust). The text has this: Puccinia recondita f. sp. tritici/Wheat/Leaf Disc Preventative (Brown Rust) Wheat leaf segments cv. Kanzler were placed on agar in multiwell plates (24-well format) and sprayed with the formulated test compound diluted in water. The leaf disks were inoculated with a spore suspension of the fungus 1 day after application.

For test [3] the test system is unchanged. In words: Puccinia recondita f. sp. tritici / wheat / leaf disc curative (brown rust). As for the experimental part: Puccinia recondita f. sp. tritici/Wheat/Leaf Disc Curative (Brown Rust) Wheat leaf segments cv. Kanzler are placed on agar in multiwell plates (24-well format). The leaf segments are inoculated with a spore suspension of the fungus. Plates were stored in darkness at 19° C. and 75% rh. The formulated test compound diluted in water was applied 1 day after inoculation.

Some results are limits rather than exact numbers.

Take `CCN(C)/C=N/c1cc(Br)c(OC2CCNCC2)nc1C` [Q.053]: the pest or weed control at 200 ppm (in test [1]; with Pyrenophora teres) was at least 50% throughout.

As to `CCN(C)/C=N/c1cc(Br)c(OC2CCc3ccc(Br)cc3C2)nc1C` (stereo not drawn) [Q.067], the pest or weed control at 200 ppm with Pyrenophora teres was at least 50%.

Take `CCN(C)/C=N/c1cc(Br)c(OCCCC=C(C)C)nc1C` [Q.079]: the pest or weed control at 200 ppm in the test on Pyrenophora teres was at least 50%.

Take `CCN(C)/C=N/c1cc(Br)c(OCc2cccc(C(C)C)c2)nc1C` [Q.169]: the pest or weed control at 200 ppm (in test [2]; in test [3]; with Pyrenophora teres) was at least 50% each time.

On to `C=C(C)CC(CC(=C)C)Oc1nc(C)c(/N=C/N(C)CC)cc1Br` [Q.232], for which the pest or weed control at 200 ppm (in test [2]; in test [3]; in the test on Pyrenophora teres) was at least 50% each time.

For the compound `CCN(C)/C=N/c1cc(Br)c(OC(C)c2cccs2)nc1C` (stereo not drawn) [Q.237], the pest or weed control at 200 ppm (in test [2]; in the test on Pyrenophora teres) was at least 50% each time.

Consider `CCc1cc(/N=C/N(C)CC)c(C)nc1O[C@H]1CC[C@H](C(C)C)CC1` [Q.252], for which the pest or weed control at 200 ppm (in test [2]; in the test with Pyrenophora teres) was at least 50% throughout.

Turning to `C#Cc1cc(/N=C/N(C)CC)c(C)nc1O[C@H]1CC[C@H](C(C)C)CC1` [Q.253], the pest or weed control at 200 ppm (in test [2]; in test [3]; with Pyrenophora teres) was at least 50% in each case.

Consider `CCN(C)/C=N/c1cc(Br)c(OC(C)c2cc(F)cc(F)c2)nc1C` (stereo not drawn) [Q.256], for which, in the test on Pyrenophora teres, the pest or weed control at 200 ppm is at least 50%.

With `CCN(C)/C=N/c1cc(Br)c(OCc2ccccc2CCc2ccccc2)nc1C` [Q.309], the pest or weed control at 200 ppm in test [1], in test [2] and in test [3] was at least 50% throughout.

As for `CCN(C)/C=N/c1cc(Br)c(OCc2ccccc2C#Cc2ccccc2)nc1C` [Q.310], the pest or weed control at 200 ppm in test [1], in test [2] and in test [3] was at least 50% each time.

Turning to `CCN(C)/C=N/c1cc(Br)c(OCc2cccc(C#Cc3ccccc3)c2)nc1C` [Q.311], the pest or weed control at 200 ppm (in test [2]; in test [3]; in the test on Pyrenophora teres) was at least 50% in each case.

Consider `CCN(C)/C=N/c1cc(Br)c(OCc2cc(F)c(F)c(F)c2)nc1C` [Q.317], for which the pest or weed control at 200 ppm in test [1], in test [2] and in test [3] was at least 50% in each case.

Take `CCN(C)/C=N/c1cc(Br)c(OC(C)c2cc(F)c(F)c(F)c2)nc1C` (stereo not drawn) [Q.318]: the pest or weed control at 200 ppm in test [1], in test [2] and in test [3] was at least 50% throughout.

As for `CCN(C)/C=N/c1cc(Br)c(OCc2ccc3c(c2)CCCC3)nc1C` [Q.319], the pest or weed control at 200 ppm in test [1], in test [2] and in test [3] was at least 50% in each case.

Regarding `CCN(C)/C=N/c1cc(Br)c(OC(C)c2ccccc2C)nc1C` (stereo not drawn) [Q.321], the pest or weed control at 200 ppm in test [1], in test [2] and in test [3] was at least 50% in each case.

Turning to `CCN(C)/C=N/c1cc(Br)c(OCc2ccc(F)c(C)c2)nc1C` [Q.323], the pest or weed control at 200 ppm in test [1], in test [2] and in test [3] was at least 50% in each case.

With `CCC(Oc1nc(C)c(/N=C/N(C)CC)cc1Br)c1cc(F)cc(F)c1` (stereo not drawn) [Q.327], the pest or weed control at 200 ppm in test [1], in test [2] and in test [3] was at least 50% each time.

Consider `CCN(C)/C=N/c1cc(Br)c(OCc2ccccc2OC)nc1C` [Q.330], for which the pest or weed control at 200 ppm in test [1], in test [2] and in test [3] was at least 50% throughout.

In the case of `C/C=C/C(C)Oc1nc(C)c(/N=C/N(C)CC)cc1Br` (stereo not drawn) [Q.331], the pest or weed control at 200 ppm in test [1], in test [2] and in test [3] was at least 50% in each case.

As to `CSc1ccccc1COc1ccc(/N=C/N(C)C(C)C)c(C)n1` [Q.339], the pest or weed control at 200 ppm in test [1], in test [2] and in test [3] was at least 50% in each case.

In the case of `CCN(C)/C=N/c1ccc(OC2CCCCC2C)nc1C` (stereo not drawn) [Q.341], the pest or weed control at 200 ppm in test [1], in test [2] and in test [3] was at least 50% in each case.

For the compound `Cc1nc(OC2CCCCC2C)ccc1/N=C/N(C)C(C)C` (stereo not drawn) [Q.342], the pest or weed control at 200 ppm in test [1], in test [2] and in test [3] was at least 50% throughout.

For `CCCc1ccccc1COc1nc(C)c(/N=C/N(C)CC)cc1Br` [Q.345], the pest or weed control at 200 ppm in test [1], in test [2] and in test [3] was at least 50% each time.

For `CCC(Oc1ccc(/N=C/N(C)CC)c(C)n1)c1ccccc1` (stereo not drawn) [Q.347], the pest or weed control at 200 ppm in test [1], in test [2] and in test [3] was at least 50% throughout.

Take `CCN(C)/C=N/c1ccc(OCCc2ccccc2C)nc1C` [Q.350]: the pest or weed control at 200 ppm in test [1], in test [2] and in test [3] was at least 50% each time.

On to `CCN(C)/C=N/c1cc(Br)c(OCc2ccc3cccnc3c2)nc1C` [Q.351], for which the pest or weed control at 200 ppm in test [1], in test [2] and in test [3] was at least 50% each time.

`CCN(C)/C=N/c1cc(Br)c(OCCCC2CC2)nc1C` [Q.356]: the pest or weed control at 200 ppm in test [1], in test [2] and in test [3] was at least 50% throughout.

Turning to `CCC(Oc1ccc(/N=C/N(C)CC)c(C)n1)c1cc(C)cc(C)c1` (stereo not drawn) [Q.359], the pest or weed control at 200 ppm in test [1], in test [2] and in test [3] was at least 50% each time.

For `Cc1cc(C)cc(C(C)Oc2ccc(/N=C/N(C)C(C)C)c(C)n2)c1` (stereo not drawn) [Q.360], the pest or weed control at 200 ppm in test [1], in test [2] and in test [3] was at least 50% in each case.

As for `COc1ccccc1COc1ccc(/N=C/N(C)C(C)C)c(C)n1` [Q.366], the pest or weed control at 200 ppm (in test [2]; in test [3]; in the test on Pyrenophora teres) was at least 50% in each case.

On to `CCN(C)/C=N/c1ccc(OCc2ccccc2OC)nc1C` [Q.367], for which the pest or weed control at 200 ppm in test [1], in test [2] and in test [3] was at least 50% each time.

As to `CCN(C)/C=N/c1ccc(OC(C)Cc2ccccc2)nc1C` (stereo not drawn) [Q.368], the pest or weed control at 200 ppm in test [1], in test [2] and in test [3] was at least 50% in each case.

In the case of `CCN(C)/C=N/c1cc(Br)c(OC2Cc3cc(C#N)c(OC)cc3C2)nc1C` (stereo not drawn) [Q.369], the pest or weed control at 200 ppm in test [1], in test [2] and in test [3] was at least 50% in each case.

Turning to `CCN(C)/C=N/c1ccc(OC(C)c2cc(OC)cc(OC)c2)nc1C` (stereo not drawn) [Q.373], the pest or weed control at 200 ppm in test [1], in test [2] and in test [3] was at least 50% each time.

Consider `COc1cc(OC)cc(C(C)Oc2ccc(/N=C/N(C)C(C)C)c(C)n2)c1` (stereo not drawn) [Q.374], for which the pest or weed control at 200 ppm in test [1], in test [2] and in test [3] was at least 50% in each case.

On to `COc1cc(COc2ccc(/N=C/N(C)C(C)C)c(C)n2)cc(OC)c1` [Q.377], for which the pest or weed control at 200 ppm (in test [2]; in test [3]; in the test with Pyrenophora teres) was at least 50% each time.

As to `CCN(C)/C=N/c1ccc(O[C@H]2CC[C@@H](CC)CC2)nc1C` [Q.381], the pest or weed control at 200 ppm in test [1], in test [2] and in test [3] was at least 50% throughout.

Regarding `CCN(C)/C=N/c1cc(Br)c(OCC(F)F)nc1C` [Q.383], the pest or weed control at 200 ppm in test [1], in test [2] and in test [3] was at least 50% each time.

For `CCN(C)/C=N/c1cc(Br)c(OCC(C)F)nc1C` (stereo not drawn) [Q.384], the pest or weed control at 200 ppm in test [1], in test [2] and in test [3] was at least 50% each time.

Take `C/C=C/c1cc(/N=C/N(C)CC)c(C)nc1OCc1ccccc1C` [Q.385]: the pest or weed control at 200 ppm in test [1], in test [2] and in test [3] was at least 50% throughout.

Consider `CCCOc1nc(C)c(/N=C/N(C)CC)cc1Br` [Q.388], for which the pest or weed control at 200 ppm in test [1], in test [2] and in test [3] was at least 50% in each case.

Take `CCN(C)/C=N/c1cc(Br)c(OCc2ccccc2C)nc1Br` [Q.397]: the pest or weed control at 200 ppm in test [1], in test [2] and in test [3] was at least 50% throughout.

As to `CCN(C)/C=N/c1cc(Br)c(OCc2ccccc2C)nc1C1CC1` [Q.401], the pest or weed control at 200 ppm in test [1], in test [2] and in test [3] was at least 50% in each case.

These data come from US9326513B2, “Fungicidal compositions” (Syngenta Participations AG, priority 2011, dated 2016).
